How the values were obtained:
[1] = test system: Chinese hamster ovary (CHO) cells; experiment: Protein synthesis assay (puromycin incorporation, western blot); assay type: cell-based; details: Cricetulus griseus; unstressed CHO cells (without Tg), 1 μM test compound, 2 hours; media alone = 100%; read-out: % Protein synthesis relative to untreated (1 μM test compound)
Outline: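 CHO cells treated 2 h with 1 μM compound alone, or with 300 nM thapsigargin plus 1 μM compound, then pulsed 30 min with 10 μg/ml puromycin. Puromycin incorporation read by anti-puromycin western blot with densitometry. Unstressed values normalized to media alone (100%); stressed recovery normalized to media alone (100%) and Tg alone (0%).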

CHO cells = experiment: Protein secretion in a CHO cell-based assay; details: 1 μM compound 10, media without FBS, 24 h, vs vehicle
Experimental: CHO cells were maintained at 37° C. and 5% CO2 in DMEM supplemented with 10% fetal bovine serum (FBS), 2 mM L-glutamine, 100 U/ml penicillin, and 100 μg/ml streptomycin. After reaching 80% of confluence, cells were detached and seeded on 6-well plates in complete media, allowed to recover for 48 h. Cells were then washed three times with PBS and treated with compound 10 at […] in 1 mL of media without FBS for 24 h. Treatment with 0.1% DMSO was used as control (vehicle). After 24 h treatment, supernatant (SN) which contains secreted proteins was extracted and protease and phosphatase inhibitors (Roche) were added to each sample. SN were centrifuged at 2,000 g for 10 min to discard any cellular debris and 900 μL SN were transferred to empty microtubes with 400 μL methanol by mixing well. 200 μL of chloroform was added to the mix and then samples were centrifuged at 14,000 g for 2 minutes. Top aqueous layer was discarded by pipetting off and 400 μL methanol is added to each sample by mixing well. Samples were then centrifuged at 17,000 g for 8 minutes and methanol was discarded by pipetting off without disturbing the protein pellet. […] Secreted proteins were analyzed by SDS-PAGE and Coomassie staining. […] Percentage was calculated as the percent relative to protein secretion levels from CHO cells treated with vehicle which correspond to 100%.

[2] = test system: ATF4 expression, HEK293T cells carrying the ATF4 luciferase reporter; experiment: ATF4 expression inhibition assay (ATF4 luciferase reporter); assay type: cell-based; details: Homo sapiens, HEK-293T, 100 nM thapsigargin, 3 hours
Outline: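 Stable HEK293T line expressing firefly luciferase behind the human full-length ATF4 5′UTR; cells stressed with 100 nM thapsigargin alongside compound (1 nM–10 μM) for 3 h at 37 °C. Luminescence normalized to Tg alone (0% inhibition) and untreated cells (100% inhibition) to give % ATF4 inhibition.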

`O=C(COc1ccc(Cl)c(F)c1)N[C@H]1CC[C@H](CNC(=O)c2ccc3cc(Cl)ccc3n2)CC1` [Compound 10, trans-6-chloro-N-((4-(2-(4-chloro-3-fluorophenoxy)acetamido)cyclohexyl)methyl)quinoline-2-carboxamide] was tested, and the activity at 1 µM [1] was 229%, the “Secretion of proteins in CHO cells” value (CHO cells) was “increased secretion of proteins” and the IC50 [2] was 106 nM.

From patent US20210317102A1, “INHIBITORS OF INTEGRATED STRESS RESPONSE PATHWAY” (Praxis Biotech LLC, priority 2019, published 2021)
